Test results taken from ChEMBL document CHEMBL3045830, “Differential effect of triazoles on mycelial growth and disease measurements of Monilinia fructicola isolates with reduced sensitivity to DMI fungicides” (Crop Prot, 2007).
The source made the active and inactive calls. The rule behind the calls is not given here.

Key:
Assay type in all cases: functional, organism-based
Monilinia fructicola [1] = assay: Fungicidal activity against Monilinia fructicola isolate SCDL71.01 infected peach fruit assessed as decrease in brown rot disease incidence at 0.112 ml/l applied 24 hr prior to inoculation after 5 days relative to untreated-control
Monilinia fructicola [2] = assay: Fungicidal activity against Monilinia fructicola isolate GADL133.04 infected peach fruit assessed as decrease in sporulation area at 0.112 ml/l applied 24 hr prior to inoculation after 5 days relative to untreated-control
Monilinia fructicola [3] = assay: Fungicidal activity against Monilinia fructicola isolate GADL133.04 infected peach fruit assessed as decrease in brown rot disease incidence at 0.112 ml/l applied 24 hr prior to inoculation after 5 days relative to untreated-control
Monilinia fructicola [4] = assay: Fungicidal activity against Monilinia fructicola isolate SCDL71.01 infected peach fruit assessed as decrease in brown rot disease incidence at 0.112 ml/l applied 24 hr after inoculation after 5 days relative to untreated-control
Monilinia fructicola [5] = assay: Fungicidal activity against Monilinia fructicola isolate SCDL71.01 infected peach fruit assessed as decrease in sporulation area at 0.112 ml/l applied 24 hr prior to inoculation after 5 days relative to untreated-control
Monilinia fructicola [6] = assay: Fungicidal activity against Monilinia fructicola isolate GADL133.04 infected peach fruit assessed as decrease in brown rot disease incidence at 0.112 ml/l applied 24 hr after inoculation after 5 days relative to untreated-control
Monilinia fructicola [7] = assay: Fungicidal activity against Monilinia fructicola isolate SCDL71.01 infected peach fruit assessed as decrease in sporulation area at 0.112 ml/l applied 24 hr after inoculation after 5 days relative to untreated-control
Monilinia fructicola [8] = assay: Fungicidal activity against Monilinia fructicola isolate GADL193.04 infected peach fruit assessed as decrease in brown rot disease incidence at 0.112 ml/l applied 24 hr prior to inoculation after 5 days relative to untreated-control
Monilinia fructicola [9] = assay: Fungicidal activity against Monilinia fructicola isolate GADL193.04 infected peach fruit assessed as decrease in sporulation area at 0.112 ml/l applied 24 hr after inoculation after 5 days relative to untreated-control
Monilinia fructicola [10] = assay: Fungicidal activity against Monilinia fructicola isolate GADL133.04 infected peach fruit assessed as decrease in sporulation area at 0.112 ml/l applied 24 hr after inoculation after 5 days relative to untreated-control
Monilinia fructicola [11] = assay: Fungicidal activity against Monilinia fructicola isolate GADL133.04 assessed as reduction in colony diameter after 5 days
Monilinia fructicola [12] = assay: Fungicidal activity against Monilinia fructicola isolate GADL193.04 assessed as reduction in colony diameter after 5 days
Monilinia fructicola [13] = assay: Fungicidal activity against Monilinia fructicola isolate SCDL71.01 assessed as reduction in colony diameter after 5 days
Monilinia fructicola [14] = assay: Fungicidal activity against Monilinia fructicola isolate GADL193.04 infected peach fruit assessed as decrease in sporulation area at 0.112 ml/l applied 24 hr prior to inoculation after 5 days relative to untreated-control
Monilinia fructicola [15] = assay: Fungicidal activity against Monilinia fructicola isolate GADL193.04 infected peach fruit assessed as decrease in brown rot disease incidence at 0.112 ml/l applied 24 hr after inoculation after 5 days relative to untreated-control
Monilinia fructicola [16] = assay: Fungicidal activity against Monilinia fructicola isolate SCDL71.01 infected peach fruit assessed as decrease in brown rot disease incidence at 0.131 ml/l applied 24 hr after inoculation after 5 days relative to untreated-control
Monilinia fructicola [17] = assay: Fungicidal activity against Monilinia fructicola isolate GADL133.04 infected peach fruit assessed as decrease in sporulation area at 0.131 ml/l applied 24 hr prior to inoculation after 5 days relative to untreated-control
Monilinia fructicola [18] = assay: Fungicidal activity against Monilinia fructicola isolate GADL193.04 infected peach fruit assessed as decrease in brown rot disease incidence at 0.131 ml/l applied 24 hr after inoculation after 5 days relative to untreated-control
Monilinia fructicola [19] = assay: Fungicidal activity against Monilinia fructicola isolate SCDL71.01 infected peach fruit assessed as decrease in brown rot disease incidence at 0.131 ml/l applied 24 hr prior to inoculation after 5 days relative to untreated-control
Monilinia fructicola [20] = assay: Fungicidal activity against Monilinia fructicola isolate GADL193.04 infected peach fruit assessed as decrease in sporulation area at 0.131 ml/l applied 24 hr after inoculation after 5 days relative to untreated-control
Monilinia fructicola [21] = assay: Fungicidal activity against Monilinia fructicola isolate SCDL71.01 infected peach fruit assessed as decrease in sporulation area at 0.131 ml/l applied 24 hr prior to inoculation after 5 days relative to untreated-control
Monilinia fructicola [22] = assay: Fungicidal activity against Monilinia fructicola isolate SCDL71.01 infected peach fruit assessed as decrease in sporulation area at 0.131 ml/l applied 24 hr after inoculation after 5 days relative to untreated-control
Monilinia fructicola [23] = assay: Fungicidal activity against Monilinia fructicola isolate GADL193.04 infected peach fruit assessed as decrease in sporulation area at 0.131 ml/l applied 24 hr prior to inoculation after 5 days relative to untreated-control
Monilinia fructicola [24] = assay: Fungicidal activity against Monilinia fructicola isolate GADL133.04 infected peach fruit assessed as decrease in brown rot disease incidence at 0.131 ml/l applied 24 hr prior to inoculation after 5 days relative to untreated-control
Monilinia fructicola [25] = assay: Fungicidal activity against Monilinia fructicola isolate GADL193.04 infected peach fruit assessed as decrease in brown rot disease incidence at 0.131 ml/l applied 24 hr prior to inoculation after 5 days relative to untreated-control
Monilinia fructicola [26] = assay: Fungicidal activity against Monilinia fructicola isolate GADL133.04 infected peach fruit assessed as decrease in sporulation area at 0.131 ml/l applied 24 hr after inoculation after 5 days relative to untreated-control
Monilinia fructicola [27] = assay: Fungicidal activity against Monilinia fructicola isolate GADL133.04 infected peach fruit assessed as decrease in brown rot disease incidence at 0.131 ml/l applied 24 hr after inoculation after 5 days relative to untreated-control
Monilinia fructicola [28] = assay: Fungicidal activity against Monilinia fructicola isolate SCDL71.01 infected peach fruit assessed as decrease in sporulation area at 0.135 ml/l applied 24 hr after inoculation after 5 days relative to untreated-control
Monilinia fructicola [29] = assay: Fungicidal activity against Monilinia fructicola isolate GADL193.04 infected peach fruit assessed as decrease in brown rot disease incidence at 0.135 ml/l applied 24 hr after inoculation after 5 days relative to untreated-control
Monilinia fructicola [30] = assay: Fungicidal activity against Monilinia fructicola isolate SCDL71.01 infected peach fruit assessed as decrease in sporulation area at 0.135 ml/l applied 24 hr prior to inoculation after 5 days relative to untreated-control
Monilinia fructicola [31] = assay: Fungicidal activity against Monilinia fructicola isolate GADL193.04 infected peach fruit assessed as decrease in sporulation area at 0.135 ml/l applied 24 hr prior to inoculation after 5 days relative to untreated-control
Monilinia fructicola [32] = assay: Fungicidal activity against Monilinia fructicola isolate GADL133.04 infected peach fruit assessed as decrease in sporulation area at 0.135 ml/l applied 24 hr prior to inoculation after 5 days relative to untreated-control
Monilinia fructicola [33] = assay: Fungicidal activity against Monilinia fructicola isolate GADL133.04 infected peach fruit assessed as decrease in sporulation area at 0.135 ml/l applied 24 hr after inoculation after 5 days relative to untreated-control
Monilinia fructicola [34] = assay: Fungicidal activity against Monilinia fructicola isolate GADL193.04 infected peach fruit assessed as decrease in brown rot disease incidence at 0.135 ml/l applied 24 hr prior to inoculation after 5 days relative to untreated-control
Monilinia fructicola [35] = assay: Fungicidal activity against Monilinia fructicola isolate SCDL71.01 infected peach fruit assessed as decrease in brown rot disease incidence at 0.135 ml/l applied 24 hr prior to inoculation after 5 days relative to untreated-control
Monilinia fructicola [36] = assay: Fungicidal activity against Monilinia fructicola isolate SCDL71.01 infected peach fruit assessed as decrease in brown rot disease incidence at 0.135 ml/l applied 24 hr after inoculation after 5 days relative to untreated-control
Monilinia fructicola [37] = assay: Fungicidal activity against Monilinia fructicola isolate GADL133.04 infected peach fruit assessed as decrease in brown rot disease incidence at 0.135 ml/l applied 24 hr after inoculation after 5 days relative to untreated-control
Monilinia fructicola [38] = assay: Fungicidal activity against Monilinia fructicola isolate GADL193.04 infected peach fruit assessed as decrease in sporulation area at 0.135 ml/l applied 24 hr after inoculation after 5 days relative to untreated-control
Monilinia fructicola [39] = assay: Fungicidal activity against Monilinia fructicola isolate GADL133.04 infected peach fruit assessed as decrease in brown rot disease incidence at 0.135 ml/l applied 24 hr prior to inoculation after 5 days relative to untreated-control

How did the Activity (Monilinia fructicola [1]) turn out when `N#CC(CCc1ccc(Cl)cc1)(Cn1cncn1)c1ccccc1` (stereo not given) [FENBUCONAZOLE] was run?
Its Activity is “Active”.

And the Activity (Monilinia fructicola [2])?
Its Activity is “Active”.

And the Activity (Monilinia fructicola [3])?
Its Activity is “Active”.

What about the Activity (Monilinia fructicola [4]) of the same molecule?
Its Activity is “Active”.

What about the Activity (Monilinia fructicola [5]) of the same molecule?
Its Activity is “Active”.

And the Activity (Monilinia fructicola [6])?
Its Activity is “Active”.

What about the Activity (Monilinia fructicola [7]) of the same molecule?
Its Activity is “Active”.

What about the Activity (Monilinia fructicola [8]) of the same molecule?
The Activity was “Active”.

And the Activity (Monilinia fructicola [9])?
Its Activity is “Active”.

And the Activity (Monilinia fructicola [10])?
Its Activity is “Active”.

And the Activity (Monilinia fructicola [11])?
The Activity was “Active”.

What about the Activity (Monilinia fructicola [12]) of the same molecule?
Its Activity is “Active”.

What about the EC50 (Monilinia fructicola [13]) of the same molecule?
The EC50 was 0.019 uL/ml.

What about the Activity (Monilinia fructicola [14]) of the same molecule?
The Activity was “Active”.

And the Activity (Monilinia fructicola [15])?
Its Activity is “Active”.

Which results are given for `CCCC1COC(Cn2cncn2)(c2ccc(Cl)cc2Cl)O1` (stereo not given) [PROPICONAZOLE]?
Activity (Monilinia fructicola [16]): Active; Activity (Monilinia fructicola [17]): Active; Activity (Monilinia fructicola [18]): Active; Activity (Monilinia fructicola [19]): Active; Activity (Monilinia fructicola [20]): Active; Activity (Monilinia fructicola [21]): Active; Activity (Monilinia fructicola [22]): Active; Activity (Monilinia fructicola [11]): Active; Activity (Monilinia fructicola [12]): Active; EC50 (Monilinia fructicola [13]): 0.023 uL/ml; Activity (Monilinia fructicola [23]): Active; Activity (Monilinia fructicola [24]): Active; Activity (Monilinia fructicola [25]): Active; Activity (Monilinia fructicola [26]): Active; Activity (Monilinia fructicola [27]): Active

`CC(C)(C)C(O)(CCc1ccc(Cl)cc1)Cn1cncn1` (stereo not given) [TEBUCONAZOLE] was tested. Which Activity (Monilinia fructicola [28]) did it give?
The Activity was “Active”.

What about the Activity (Monilinia fructicola [29]) of the same molecule?
Its Activity is “Active”.

And the Activity (Monilinia fructicola [30])?
Its Activity is “Active”.

And the Activity (Monilinia fructicola [31])?
The Activity was “Active”.

And the Activity (Monilinia fructicola [32])?
The Activity was “Active”.

And the Activity (Monilinia fructicola [33])?
Its Activity is “Active”.

What about the Activity (Monilinia fructicola [34]) of the same molecule?
Its Activity is “Active”.

And the Activity (Monilinia fructicola [35])?
Its Activity is “Active”.

And the Activity (Monilinia fructicola [11])?
Its Activity is “Active”.

And the Activity (Monilinia fructicola [12])?
Its Activity is “Active”.

What about the Activity (Monilinia fructicola [36]) of the same molecule?
The Activity was “Active”.

And the EC50 (Monilinia fructicola [13])?
The EC50 was 0.018 uL/ml.

What about the Activity (Monilinia fructicola [37]) of the same molecule?
Its Activity is “Active”.

And the Activity (Monilinia fructicola [38])?
Its Activity is “Active”.

And the Activity (Monilinia fructicola [39])?
Its Activity is “Active”.
